Like-named read-outs stand apart in the source and are kept apart here.
What was measured:
[1] = target: T1, V600E full-length B-Raf (Homo sapiens, UniProt P15056, V600E); experiment: B-Raf IC50 assay (Example A); assay type: biochemical
T1 construct: 1 μM FSBA-MEK and 20 nM V600E full-length B-Raf; made in house; host or cells: Sf9 insect cells (baculovirus)
Summary of the method: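 Sf9-expressed full-length V600E B-Raf (20 nM) phosphorylated 1 µM FSBA-modified wild-type MEK with 4 µM ATP plus [γ-33P]ATP in 25 mM Pipes pH 7.2, 100 mM KCl, 10 mM MgCl2. Enzyme and substrate were preincubated 15 min, and the reaction ran 60 min at 22 °C. It was TCA-quenched and filter-captured, and incorporated radioactivity was scintillation-counted.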

[2] = tested on: basal ERK1/2 phosphorylation in Malme-3M cells; experiment: Cellular ERK 1/2 phosphorylation assay (Example A1); assay type: cell-based; settings: Homo sapiens, 1 hour incubation, pERK normalized to total ERK, read-out: P-ERK Malme3-M IC50
Summary of the method: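 Malme-3M cells (24,000/well, RPMI-1640 with 10% FBS) were treated with compounds for 1 h at 37 °C, 1% DMSO final. Fixed, methanol-permeabilized cells were immunostained for pERK and total ERK and read by infrared fluorescence. pERK signal was normalized to total ERK.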

[3] = B-Raf V600E assay of Example A, read-out: IC50
[4] = [γ-33P]ATP incorporation into FSBA-MEK, 4 μM ATP, read-out: BRAF V600E IC50

T1 sequence (P15056 whole entry V600E): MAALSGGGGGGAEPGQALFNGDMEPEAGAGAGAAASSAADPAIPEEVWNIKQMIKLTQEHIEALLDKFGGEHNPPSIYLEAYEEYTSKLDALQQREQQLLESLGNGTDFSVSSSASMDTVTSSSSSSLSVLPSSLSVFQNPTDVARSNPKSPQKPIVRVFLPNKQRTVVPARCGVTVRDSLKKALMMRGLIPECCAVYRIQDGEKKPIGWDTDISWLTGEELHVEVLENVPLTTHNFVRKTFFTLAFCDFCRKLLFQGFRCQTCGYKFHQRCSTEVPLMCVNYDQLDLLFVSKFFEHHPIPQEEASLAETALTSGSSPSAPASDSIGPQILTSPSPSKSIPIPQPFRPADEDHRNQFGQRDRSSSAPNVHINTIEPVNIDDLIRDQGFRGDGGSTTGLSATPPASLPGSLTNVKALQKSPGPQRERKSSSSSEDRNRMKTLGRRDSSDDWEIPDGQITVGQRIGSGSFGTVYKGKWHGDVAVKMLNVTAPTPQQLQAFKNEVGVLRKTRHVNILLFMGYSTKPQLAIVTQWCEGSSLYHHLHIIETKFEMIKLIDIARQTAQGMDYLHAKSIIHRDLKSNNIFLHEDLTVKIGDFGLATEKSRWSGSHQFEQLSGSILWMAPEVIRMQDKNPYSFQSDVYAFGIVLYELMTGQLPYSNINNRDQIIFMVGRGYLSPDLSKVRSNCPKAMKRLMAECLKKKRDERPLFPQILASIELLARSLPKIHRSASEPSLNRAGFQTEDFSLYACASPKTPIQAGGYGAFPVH

| Structure (SMILES) | IC50 [1, 3] [nM] | IC50 [1, 4] [nM] | IC50 [2] [nM] |
| --- | --- | --- | --- |
| O=C(Nc1c(F)ccc(NS(=O)(=O)CCCF)c1F)c1cccc2cncnc12 [Example 55, Quinazoline-8-carboxylic acid [2,6-difluoro-3-(3-fluoro-propane-1-sulfonylamino)-phenyl]-amide] | < 100 | 32.2 | 92.8 |
| O=C(Nc1c(F)ccc(NS(=O)(=O)CC2CC2)c1F)c1cccc2cncnc12 [Example 56, Quinazoline-8-carboxylic acid (3-cyclopropylmethane-sulfonylamino-2,6-difluoro-phenyl)-amide] | < 1000 | 204 | 638 |
| O=C(Nc1c(Cl)ccc(NS(=O)(=O)CCCF)c1Cl)c1cccc2cncnc12 [Example 57, Quinazoline-8-carboxylic acid [2,6-dichloro-3-(3-fluoro-propane-1-sulfonylamino)-phenyl]-amide] | < 100 | 0.96 | 87.6 |
| CCCS(=O)(=O)Nc1ccc(Cl)c(NC(=O)c2cccc3cncnc23)c1F [Example 58, Quinazoline-8-carboxylic acid [6-chloro-2-fluoro-3-(propane-1-sulfonylamino)-phenyl]-amide] | < 100 | 17.1 | 301 |
| O=C(Nc1c(Cl)ccc(NS(=O)(=O)CCCF)c1F)c1cccc2cncnc12 [Example 59, Quinazoline-8-carboxylic acid [6-chloro-2-fluoro-3-(3-fluoro-propane-1-sulfonylamino)-phenyl]-amide] | < 100 | 1.49 | 83.7 |
| Cc1ncnc2c(C(=O)Nc3c(Cl)ccc(NS(=O)(=O)CCCF)c3Cl)cccc12 [Example 60, 4-Methyl-quinazoline-8-carboxylic acid [2,6-dichloro-3-(3-fluoro-propane-1-sulfonylamino)-phenyl]-amide] | < 100 | 0.82 | 53.4 |
| Cc1ncnc2c(C(=O)Nc3c(F)ccc(NS(=O)(=O)CCCF)c3F)cccc12 [Example 61, 4-Methyl-quinazoline-8-carboxylic acid [2,6-difluoro-3-(3-fluoro-propane-1-sulfonylamino)-phenyl]-amide] | < 100 | 19.3 | 116 |
| Cc1ncnc2c(C(=O)Nc3c(Cl)ccc(NS(=O)(=O)CCCF)c3F)cccc12 [Example 62, 4-Methyl-quinazoline-8-carboxylic acid [6-chloro-2-fluoro-3-(3-fluoro-propane-1-sulfonylamino)-phenyl]-amide] | < 100 | 3.07 | 44 |

Now from value to compound, other results behind:

| IC50 [1, 3] [nM] | IC50 [1, 4] [nM] | Structure (SMILES) | IC50 [2] [nM] |
| --- | --- | --- | --- |
| < 100 | 1.01 | CCCS(=O)(=O)Nc1ccc(F)c(NC(=O)c2ccnc3c(N)ncnc23)c1Cl [Example 63, 4-Amino-pyrido[3,2-d]pyrimidine-8-carboxylic acid [2-chloro-6-fluoro-3-(propane-1-sulfonylamino)-phenyl]-amide] | 7.6 |
| < 100 | 3.11 | CCCS(=O)(=O)Nc1ccc(F)c(NC(=O)c2ccnc3c(N)ncnc23)c1F [Example 64, 4-Amino-pyrido[3,2-d]pyrimidine-8-carboxylic acid [2,6-difluoro-3-(propane-1-sulfonylamino)-phenyl]-amide] | 9.7 |
| < 100 | 1.14 | CCCS(=O)(=O)Nc1ccc(Cl)c(NC(=O)c2ccnc3c(N)ncnc23)c1F [Example 65, 4-Amino-pyrido[3,2-d]pyrimidine-8-carboxylic acid [6-chloro-2-fluoro-3-(propane-1-sulfonylamino)-phenyl]-amide] | 9.4 |
| < 100 | 0.75 | Nc1ncnc2c(C(=O)Nc3c(F)ccc(NS(=O)(=O)CCCF)c3F)ccnc12 [Example 66, 4-Amino-pyrido[3,2-d]pyrimidine-8-carboxylic acid [2,6-difluoro-3-(3-fluoro-propane-1-sulfonylamino)-phenyl]-amide] | 3.04 |

Reference: patent US20130018033A1, “RAF INHIBITOR COMPOUNDS AND METHODS OF USE THEREOF” (ARRAY BIOPHARMA INC., priority 2009, published 2013)
